System: Bleomycin-induced Lung Injury Model Animal
Assay: Bleomycin-induced lung injury model, lung tissue hydroxyproline content
Type: in vivo, ICR male mice
Experimental: Production of Bleomycin-induced Lung Injury Model Animal:
Using each of ICR male mice and under pentobarbital (60 mg/kg, i.v.) anesthesia, the cervical region was shaved and the skin was incised for about 4 mm from under the larynx region along the median line. Next, the muscle layer covering upper trachea was peeled off to expose the trachea. Using a micro-syringe, physiological saline or bleomycin hydrochloride (0.03 mg/animal, manufactured by Nippon Kayaku) was administered tracheally (50 μl/animal) from the tracheal smooth muscle region between cricoid cartilage. After the administration, the incised region was closed and antibiotics were administered into the thigh intramuscularly in order to prevent infection. S1P (10 mg/5 ml/kg, 0.5% aqueous solution of carboxymethylcellulose sodium (CMC.Na)-physiological saline, manufactured by Matreya) was intraperitoneally administered once a day for 14 days after the bleomycin induction. […]
The hydrolyzed supernatant (25 μl) was mixed with borate-alanine buffer (2.475 ml) separately prepared, and potassium chloride (solid) was added thereto until it was saturated. […] The absorbance of each sample was immediately measured at 560 nm, and the amount of hydroxyproline in the sample was calculated from a calibration curve.
The inhibition ratio was calculated by the following equation. […]

CCCCCCCCCCCCC/C=C/[C@H](O)[C@H](N)COP(=O)(O)O (stereo in doubt) [S1P, sphingosine 1-phosphate]
Inhibition ratio: suppression of bleomycin-induced increase of hydroxyproline content ([{(C−B)−(S−B)}÷(C−B)]×100, S1P 10 mg/kg i.p. once a day for 14 days, ICR male mice): ca. 90% | Hydroxyproline content (bleomycin-induced (0.03 mg/animal, tracheal) ICR male mice, S1P 10 mg/5 ml/kg i.p. once a day for 14 days, lung excised fifteen days after induction): 227.8 ± 17.5 μg/lung

— patent US7151093B2, “Use of sphingosine 1-phosphate as active ingredient for the treatment of pulmonary fibrosis” (Ono Pharmaceutical Co., Ltd., priority 1999, dated 2006)
